Measurements taken from patent US20150246898A1, “METALLOENZYME INHIBITOR COMPOUNDS” (DOW AGROSCIENCES LLC, priority 2012, published 2015).
Converted amounts (≈) assume the structure as drawn.

Legend:
[1] = tested on: Septoria tritici (ATCC 26517); test: Minimum Inhibitory Concentration (MIC) vs. Septoria tritici, CLSI-based microdilution; format: cell-based; details: Zymoseptoria tritici, ATCC26517, 168 h; MIC = 50% reduction in growth of S. tritici, 7 days at 22 °C, RPMI/MOPS, 1% DMSO; read-out: Septoria Rating (MIC)
Protocol: Compounds of the present disclosure were assessed for their ability to inhibit the growth of a common strain of the fungal plant pathogen Septoria tritici (ATCC 26517) using a procedure based on a Clinical and Laboratory Standards Institute (CLSI) microdilution assay protocol for filamentous fungi. Stock solutions of the test compounds and standards were prepared in DMSO at 6400 μg/mL. Each stock solution was used to prepare a 2-fold dilution series ranging from 16 to 0.016 μg/mL (total of 11 compound concentrations) in RPMI-1640 (Roswell Park Memorial Institute) medium containing 3-(N-morpholino)propanesulfonic acid (MOPS) buffer and 2% DMSO. A 100 μL aliquot of the dilutions was added to columns 1 (16 μg/mL compound) through 11 (0.016 μg/mL compound) of a 96-well microtiter plate. This format was replicated in a second row of the microtiter plate. Thus, each microtiter plate could include 11 concentrations of four test or control compounds replicated twice. A 100 μL aliquot of RPMI-1640/MOPS/2% DMSO medium was added to column 12 (no compound control) of the microtiter plate. A fresh culture of S. tritici was used to prepare a solution of approximately 5×10^4 colony-forming units per milliliter (cfu/mL) in RPMI/MOPS medium without DMSO. A 100 μL aliquot of this solution was added to all 96 wells in the microtiter plate. […] In each case of Table 3 the Septoria rating scale is as follows: […]

T. rubrum = test: Minimum Inhibitory Concentration (MIC) (T. rubrum), CLSI M27-A2; format: cell-based; details: Trichophyton rubrum; about 50% growth reduction, approx. 96 h at 35 °C, RPMI+MOPS
Protocol: Compounds of the present disclosure were assessed for their ability to inhibit the growth of common strains of fungus, T. rubrum using a standardized procedure (CLSI M27-A2). Stock solutions of the test compounds and standards were prepared in DMSO at 1,600 μg/mL (T. rubrum). Eleven, serial, one-half dilutions of compounds were prepared in 96-well plates in RPMI+MOPS. The assay concentration ranges were 8-0.001 μg/mL (T. rubrum). Cell suspensions of T. rubrum were prepared and added to each well at concentrations of approximately 3.7×10^3 colony-forming-units per milliliter (cfu/mL). All testing was in duplicate. The inoculated plates were incubated for approximately 96 h at 35±1° C. At the completion of incubation the wells of each plate were evaluated visually for the presence of fungal growth. […] For voriconazole the MIC was the concentration which reduced T rubrum growth by 50% (per CLSI, M27-A2). For QC purposes C. krusei isolate ATCC 6258 (4.0×10^3 cfu/mL) was included in the VOR assay.

[2] = tested on: Puccinia recondita tritici = Puccinia triticina (PUCCRT); test: Fungicidal activity vs. leaf rust on wheat plants (1-day protectant spray); format: in vivo; details: wheat (variety Yuma) sprayed at 50 ppm, inoculated next day, disease severity evaluated 7-9 days later, read-out: Puccinia Rating (% Disease Control @ 50 ppm)
From the text: Each pot contained 3-8 seedlings. These plants were sprayed until wet with the formulated test compounds. The compounds were formulated at 50 ppm in 10 vol. % acetone plus 90 vol. % Triton X water (deionized water 99.99 wt %+0.01 wt % Triton X100), giving a “formulated test compound.” Formulated test compounds were applied to plants using a turn table sprayer fitted with two opposing air atomization nozzles which delivered approximately 1500 L/ha of spray volume. On the following day, the leaves were inoculated with an aqueous spore suspension of Puccinia recondita tritici and the plants were kept in high humidity overnight to permit spores to germinate and infect the leaf. The plants were then transferred to a greenhouse until disease developed on untreated control plants. Disease severity was evaluated 7-9 days later, depending on the speed of disease development. In each case of Table 3, the Puccinia rating scale is as follows: […]

| Structure (SMILES) | MIC [1] | MIC (T. rubrum) | pest or weed control at 50 ppm [2] |
| --- | --- | --- | --- |
| OC(c1cncnc1)(c1ccc(F)cc1F)C(F)(F)c1ccc(C#Cc2ccc(F)cc2)cn1 (racemic) [Example 2, 1-(2,4-difluorophenyl)-2,2-difluoro-2-(5-((4-fluorophenyl)ethynyl)pyridin-2-yl)-1-(pyrimidin-5-yl)ethanol] | ≤ 0.5 µg/mL | 0.25 µg/mL (≈ 0.535 µM) | 80 to 100% |
| OC(c1cncnc1)(c1ccc(F)cc1F)C(F)(F)c1ccc(Br)cn1 (racemic) [Example 1, 2-(5-bromopyridin-2-yl)-1-(2,4-difluorophenyl)-2,2-difluoro-1-(pyrimidin-5-yl)ethanol] | 0.5 to 1.5 µg/mL (≈ 1.17 to 3.5 µM) | 0.125 µg/mL (≈ 0.292 µM) |  |
| N#Cc1ccc(C#Cc2ccc(C(F)(F)C(O)(c3cncnc3)c3ccc(F)cc3F)nc2)s1 (racemic) [Example 37] | ≤ 0.5 µg/mL |  | 60 to 79% |
| CC(C)(C)C(O)(c1cncnc1)C(F)(F)c1ccc(C#Cc2ccc(F)cc2)cn1 (racemic) [Example 48] | ≤ 0.5 µg/mL |  | < 40% |
| OC(c1cncnc1)(c1ccc(F)cc1F)C(F)(F)c1ccc(Oc2cccc(Cl)c2)cn1 (racemic) [Example 47] | 0.5 to 1.5 µg/mL (≈ 1.05 to 3.15 µM) |  | 80 to 100% |
| OCC#Cc1ccc(C(F)(F)C(O)(c2cncnc2)c2ccc(F)cc2F)nc1 (racemic) [Example 8, 3-(6-(2-(2,4-difluorophenyl)-1,1-difluoro-2-hydroxy-2-(pyrimidin-5-yl)ethyl)pyridin-3-yl)prop-2-yn-1-ol] | 0.5 to 1.5 µg/mL (≈ 1.24 to 3.72 µM) |  | 80 to 100% |
| OC(c1cncnc1)(c1ccc(F)cc1F)C(F)(F)c1ccc(OCc2ccc(Cl)c(Cl)c2)cn1 (stereo not drawn) [Example 52] | 0.5 to 1.5 µg/mL (≈ 0.954 to 2.86 µM) |  | 60 to 79% |
| OC(c1cncnc1)(C1CC1)C(F)(F)c1ccc(C#Cc2ccc(F)cc2)cn1 (racemic) [Example 70, 1-Cyclopropyl-2,2-difluoro-2-(5-((4-fluorophenyl)ethynyl)pyridin-2-yl)-1-(pyrimidin-5-yl)ethanol] | ≤ 0.5 µg/mL |  | 80 to 100% |
| OC(c1cncnc1)(c1ccc(F)cc1F)C(F)(F)c1ccc(OCc2ccc(Cl)cc2)cn1 (racemic) [Example 41] | ≤ 0.5 µg/mL |  | 80 to 100% |
| N#Cc1ccc(C#Cc2ccc(C(F)(F)C(O)(c3cncnc3)c3ccc(F)cc3F)nc2)c(F)c1 (racemic) [Example 12, 4-((6-(2-(2,4-Difluorophenyl)-1,1-difluoro-2-hydroxy-2-(pyrimidin-5-yl)ethyl)pyridin-3-yl)ethynyl)-3-fluorobenzonitrile] | ≤ 0.5 µg/mL |  | 80 to 100% |
| OC(c1cncnc1)(c1ccc(F)cc1F)C(F)(F)c1ccc(OCc2ccc(Cl)cc2F)cn1 (racemic) [Example 10] | ≤ 0.5 µg/mL |  | 80 to 100% |
| CC(C)C(O)(c1cncnc1)C(F)(F)c1ccc(C#Cc2ccc(C#N)cc2)cn1 (racemic) [Example 35] | 0.5 to 1.5 µg/mL (≈ 1.24 to 3.71 µM) |  | < 40% |
| N#Cc1ccc(C#Cc2ccc(C(F)(F)C(O)(c3cncnc3)c3ccc(F)cc3F)nc2)cc1F (racemic) [Example 11] | ≤ 0.5 µg/mL |  | 80 to 100% |
| CC(C)C(O)(c1cncnc1)C(F)(F)c1ccc(C#Cc2ccc(Cl)cc2)cn1 (racemic) [Example 64] | ≤ 0.5 µg/mL |  | < 40% |
| CC(C)C(O)(c1cncnc1)C(F)(F)c1ccc(C#Cc2cccc(C#N)c2)cn1 (racemic) [Example 67] | ≤ 0.5 µg/mL |  | < 40% |
| N#Cc1ccc(C#Cc2ccc(C(F)(F)C(O)(c3ccc(Cl)cc3)c3cncnc3)nc2)cc1 (racemic) [Example 43] | ≤ 0.5 µg/mL |  | 60 to 79% |

Continued, in another order:

| MIC [1] | MIC (T. rubrum) | Structure (SMILES) | pest or weed control at 50 ppm [2] |
| --- | --- | --- | --- |
| ≤ 0.5 µg/mL |  | Nc1ccc(C#Cc2ccc(C(F)(F)C(O)(c3cncnc3)c3ccc(F)cc3F)nc2)cc1 (racemic) [Example 20, 2-(5-((4-Aminophenyl)ethynyl)pyridin-2-yl)-1-(2,4-difluorophenyl)-2,2-difluoro-1-(pyrimidin-5-yl)ethanol] | 60 to 79% |
| 0.5 to 1.5 µg/mL (≈ 1.12 to 3.35 µM) |  | OC(c1cncnc1)(c1ccc(F)cc1F)C(F)(F)c1ccc(OCC(F)(F)F)cn1 (racemic) [Example 34] | 80 to 100% |
| ≤ 0.5 µg/mL |  | OC(c1cncnc1)(c1ccc(F)cc1F)C(F)(F)c1ccc(C#Cc2ccc(OC(F)F)cc2)cn1 (racemic) [Example 21, 2-(5-((4-(Difluoromethoxy)phenyl)ethynyl)pyridin-2-yl)-1-(2,4-difluorophenyl)-2,2-difluoro-1-(pyrimidin-5-yl)ethanol] | 80 to 100% |
|  | 0.062 µg/mL (≈ 0.177 µM) | C[C@@H](c1ncncc1F)[C@](O)(Cn1cncn1)c1ccc(F)cc1F [Voriconazole, voriconazole, reference compound] |  |
| ≤ 0.5 µg/mL |  | N#Cc1ccc(C#Cc2ccc(C(F)(F)C(O)(c3cncnc3)c3ccc(F)cc3F)nc2)cc1 (racemic) [Example 5, 4-((6-(2-(2,4-difluorophenyl)-1,1-difluoro-2-hydroxy-2-(pyrimidin-5-yl)ethyl)pyridin-3-yl)ethynyl)benzonitrile] | 80 to 100% |
| 0.5 to 1.5 µg/mL (≈ 0.985 to 2.95 µM) |  | OC(c1cncnc1)(c1ccc(F)cc1F)C(F)(F)c1ccc(OCc2ccc(Cl)c(F)c2)cn1 (racemic) [Example 51] | 60 to 79% |
| ≤ 0.5 µg/mL |  | OC(c1cncnc1)(c1ccc(F)cc1F)C(F)(F)c1ccc(C#Cc2ccc(OC(F)(F)F)cc2)cn1 (racemic) [Example 14] | 80 to 100% |
| ≤ 0.5 µg/mL |  | COc1ccc(C#Cc2ccc(C(F)(F)C(O)(c3cncnc3)c3ccc(F)cc3F)nc2)cc1 (racemic) [Example 15] | 60 to 79% |
